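Results reflect a 48-hour exposure of cells in 96-well plates to compound at five concentrations. Abbreviation: GI50, concentration required for 50% inhibition of growth.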 The source made the active and inactive calls. Cut-off read from the data, not from the text of the source: active = GI50 up to about 1.1 µM and inactive = higher.
Legend:
Assay in all cases: DTP human tumour cell line panel, 48 h
HOP-62 = tested on: HOP-62
IGROV-1 = tested on: IGROV-1
DLD-1 = tested on: DLD-1
SNB-78 = tested on: SNB-78
HOP-92 = tested on: HOP-92
DMS-273 = tested on: DMS-273
RPMI-8226 = tested on: RPMI-8226
SN12C = tested on: SN12C
HCC 2998 = tested on: HCC 2998
SNB-75 = tested on: SNB-75
HCT-116 = tested on: HCT-116
UO-31 = tested on: UO-31
NCI-H460 = tested on: NCI-H460
KM-20L2 = tested on: KM-20L2
U-251 = tested on: U-251
K562 = tested on: K562
EKVX = tested on: EKVX
SK-MEL-5 = tested on: SK-MEL-5
SK-OV-3 = tested on: SK-OV-3
SNB-19 = tested on: SNB-19
SK-MEL-28 = tested on: SK-MEL-28
SF-539 = tested on: SF-539
HCT-15 = tested on: HCT-15
NCI-H226 = tested on: NCI-H226
HT-29 = tested on: HT-29
HL-60 = tested on: HL-60
SF-268 = tested on: SF-268
A498 = tested on: A498
M19-MEL = tested on: M19-MEL
NCI-H522 = tested on: NCI-H522
DMS-114 = tested on: DMS-114
NCI-H23 = tested on: NCI-H23
UACC-62 = tested on: UACC-62
UACC-257 = tested on: UACC-257
RXF 393 = tested on: RXF 393
MCF7 = tested on: MCF7
OVCAR-4 = tested on: OVCAR-4
MOLT-4 = tested on: MOLT-4
SW-620 = tested on: SW-620
A549 = tested on: A549
SF-295 = tested on: SF-295
COLO 205 = tested on: COLO 205
CCRF-CEM = tested on: CCRF-CEM
Malme-3M = tested on: Malme-3M
OVCAR-5 = tested on: OVCAR-5
OVCAR-3 = tested on: OVCAR-3
NCI/ADR-RES = tested on: NCI/ADR-RES
LOX IMVI = tested on: LOX IMVI
OVCAR-8 = tested on: OVCAR-8
KM12 = tested on: KM12
SK-MEL-2 = tested on: SK-MEL-2
M14 = tested on: M14
ACHN = tested on: ACHN
TK-10 = tested on: TK-10
CAKI-1 = tested on: CAKI-1
LXFL 529 = tested on: LXFL 529
786-0 = tested on: 786-0

For `CCCCCCCCC1=CCC(CN(C)C)C1=O` (centres undefined), the GI50 (HOP-62) was > 31.6 µM (inactive), the GI50 (IGROV-1) was 19.4 µM (inactive) and the GI50 (DLD-1) was 18.8 µM (inactive). The GI50 (SNB-78) was 23.8 µM (inactive), the GI50 (HOP-92) was 16.9 µM (inactive) and the GI50 (DMS-273) was 18.7 µM (inactive). The GI50 (RPMI-8226) was 1.34 µM (inactive), the GI50 (SN12C) was 17.1 µM (inactive) and the GI50 (HCC 2998) was 14 µM (inactive). The GI50 (SNB-75) was 17.7 µM (inactive), the GI50 (HCT-116) was 19.4 µM (inactive) and the GI50 (UO-31) was 17 µM (inactive). For the same compound, the GI50 (NCI-H460) was 16.3 µM (inactive), the GI50 (KM-20L2) was 21.9 µM (inactive) and the GI50 (U-251) was 18.1 µM (inactive). For the same compound, the GI50 (K562) was 9.82 µM (inactive), the GI50 (EKVX) was 23.6 µM (inactive) and the GI50 (SK-MEL-5) was 20.1 µM (inactive). For the same compound, the GI50 (SK-OV-3) was > 100 µM (inactive), the GI50 (SNB-19) was > 55.2 µM (inactive) and the GI50 (SK-MEL-28) was 20.1 µM (inactive). The GI50 (SF-539) was 19.7 µM (inactive), the GI50 (HCT-15) was 17.8 µM and the GI50 (NCI-H226) was > 51.4 µM (inactive). For the same compound, the GI50 (HT-29) was 19.4 µM (inactive), the GI50 (HL-60) was 12 µM (inactive) and the GI50 (SF-268) was 18.3 µM (inactive). The GI50 (A498) was > 43.9 µM (inactive), the GI50 (M19-MEL) was 17.8 µM (inactive) and the GI50 (NCI-H522) was 16.7 µM (inactive). For the same compound, the GI50 (DMS-114) was 18.7 µM (inactive), the GI50 (NCI-H23) was 19.9 µM (inactive) and the GI50 (UACC-62) was 18.1 µM (inactive). For the same compound, the GI50 (UACC-257) was 20.9 µM (inactive), the GI50 (RXF 393) was 19.7 µM (inactive) and the GI50 (MCF7) was 4.69 µM (inactive). For the same compound, the GI50 (OVCAR-4) was 23.6 µM (inactive), the GI50 (MOLT-4) was 19 µM (inactive) and the GI50 (SW-620) was 19.9 µM (inactive). For the same compound, the GI50 (A549) was > 100 µM (inactive), the GI50 (SF-295) was > 42.1 µM (inactive) and the GI50 (COLO 205) was 18.8 µM (inactive). For the same compound, the GI50 (CCRF-CEM) was 10.6 µM (inactive), the GI50 (Malme-3M) was 17.8 µM (inactive) and the GI50 (OVCAR-5) was 33.3 µM (inactive). For the same compound, the GI50 (OVCAR-3) was 18.3 µM (inactive), the GI50 (NCI/ADR-RES) was 20.5 µM (inactive) and the GI50 (LOX IMVI) was 16.6 µM (inactive). For the same compound, the GI50 (OVCAR-8) was 17.9 µM (inactive), the GI50 (KM12) was 15.1 µM (inactive) and the GI50 (SK-MEL-2) was 21.3 µM (inactive).
`O=C1CCC(Cl)=CC2CCCN12` (centres undefined) was tested, and the GI50 (HOP-62) was > 100 µM (inactive), the GI50 (IGROV-1) was > 100 µM (inactive) and the GI50 (DLD-1) was > 100 µM (inactive). The GI50 (SNB-78) was > 100 µM (inactive), the GI50 (HOP-92) was > 100 µM (inactive) and the GI50 (M14) was > 100 µM (inactive). The GI50 (RPMI-8226) was > 100 µM (inactive), the GI50 (SN12C) was > 100 µM (inactive) and the GI50 (HCC 2998) was > 100 µM (inactive). For the same compound, the GI50 (SNB-75) was > 100 µM (inactive), the GI50 (HCT-116) was > 100 µM (inactive) and the GI50 (UO-31) was > 100 µM (inactive). The GI50 (NCI-H460) was > 100 µM (inactive), the GI50 (KM-20L2) was > 100 µM (inactive) and the GI50 (U-251) was > 100 µM (inactive). For the same compound, the GI50 (K562) was > 100 µM (inactive), the GI50 (EKVX) was > 100 µM (inactive) and the GI50 (ACHN) was > 100 µM (inactive). For the same compound, the GI50 (SK-MEL-5) was > 100 µM (inactive), the GI50 (SK-OV-3) was > 100 µM (inactive) and the GI50 (SNB-19) was > 100 µM (inactive). For the same compound, the GI50 (TK-10) was > 100 µM (inactive), the GI50 (SK-MEL-28) was > 100 µM (inactive) and the GI50 (SF-539) was > 100 µM (inactive). The GI50 (HCT-15) was over 100 µM, the GI50 (NCI-H226) was > 100 µM (inactive) and the GI50 (HT-29) was > 100 µM (inactive). The GI50 (HL-60) was > 100 µM (inactive), the GI50 (CAKI-1) was > 100 µM (inactive) and the GI50 (A498) was > 100 µM (inactive). The GI50 (M19-MEL) was > 100 µM (inactive), the GI50 (DMS-114) was > 100 µM (inactive) and the GI50 (NCI-H23) was > 100 µM (inactive). The GI50 (UACC-62) was > 100 µM (inactive), the GI50 (UACC-257) was > 100 µM (inactive) and the GI50 (LXFL 529) was > 100 µM (inactive). For the same compound, the GI50 (RXF 393) was > 100 µM (inactive), the GI50 (MOLT-4) was > 100 µM (inactive) and the GI50 (SW-620) was > 100 µM (inactive). The GI50 (A549) was > 100 µM (inactive), the GI50 (COLO 205) was > 100 µM (inactive) and the GI50 (CCRF-CEM) was > 10 µM (inactive). For the same compound, the GI50 (786-0) was > 100 µM (inactive), the GI50 (Malme-3M) was > 100 µM (inactive) and the GI50 (OVCAR-5) was > 100 µM (inactive). The GI50 (LOX IMVI) was > 100 µM (inactive), the GI50 (OVCAR-8) was > 100 µM (inactive) and the GI50 (SK-MEL-2) was > 100 µM (inactive).

From ChEMBL document CHEMBL1201862, “PubChem BioAssay data set” (2004)
